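Dose response: 5 concentrations. Exposure: 48 h. Format: 96-well plates. Endpoint: linear interpolation; highest concentration if not reached. At the GI50, growth is halved.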 The source made the active and inactive calls. Cut-off read from the data, not from the text of the source: active = GI50 up to about 1.1 µM and inactive = higher.
How the values were obtained:
Experiment in all cases: DTP human tumour cell line panel, 48 h
OVCAR-8 = system: OVCAR-8
CAKI-1 = system: CAKI-1
A498 = system: A498
OVCAR-4 = system: OVCAR-4
KM12 = system: KM12
SK-OV-3 = system: SK-OV-3
UACC-62 = system: UACC-62
SNB-19 = system: SNB-19
HCC 2998 = system: HCC 2998
NCI/ADR-RES = system: NCI/ADR-RES
A549 = system: A549
SK-MEL-5 = system: SK-MEL-5
MOLT-4 = system: MOLT-4
SK-MEL-28 = system: SK-MEL-28
UACC-257 = system: UACC-257
NCI-H522 = system: NCI-H522
SF-295 = system: SF-295
LOX IMVI = system: LOX IMVI
Malme-3M = system: Malme-3M

Measured: GI50

CC1=CCC2CC1NC(=O)CCOCCC(=O)NC2(C)C (configuration not stated)
inactive: OVCAR-8 > 100 µM | CAKI-1 > 100 µM | A498 > 100 µM | OVCAR-4 > 100 µM | KM12 > 100 µM | SK-OV-3 > 100 µM | UACC-62 > 100 µM | SNB-19 > 100 µM | HCC 2998 > 100 µM | NCI/ADR-RES > 100 µM | A549 > 100 µM | SK-MEL-5 > 100 µM | MOLT-4 > 100 µM | SK-MEL-28 > 100 µM | UACC-257 > 100 µM | NCI-H522 > 100 µM | SF-295 > 100 µM | LOX IMVI > 100 µM

Nc1nc(Cl)c(/C=N\O)c(NCC2(CO)CCC2)n1
inactive: OVCAR-8 36.2 µM | CAKI-1 25.6 µM | A498 19.1 µM | OVCAR-4 27 µM | KM12 6.25 µM | SNB-19 53.2 µM | HCC 2998 68.7 µM | Malme-3M 30.6 µM | NCI/ADR-RES 28.5 µM | A549 28.4 µM | SK-MEL-5 28.8 µM | MOLT-4 13.5 µM | SK-MEL-28 54.6 µM | UACC-257 29.3 µM | NCI-H522 14.8 µM | SF-295 21.2 µM | LOX IMVI 9.95 µM

CC1=NN(C(=O)CC(=O)Nc2cccc(C)c2)C(=O)C1/N=N/c1ccc(C(=O)O)cc1 (configuration not stated)
inactive: OVCAR-8 > 100 µM | CAKI-1 > 100 µM | A498 > 100 µM | OVCAR-4 > 100 µM | KM12 > 100 µM | UACC-62 > 100 µM | SNB-19 > 100 µM | HCC 2998 > 100 µM | Malme-3M > 100 µM | NCI/ADR-RES > 100 µM | A549 > 100 µM | SK-MEL-5 > 100 µM | SK-MEL-28 > 100 µM | UACC-257 > 100 µM | NCI-H522 > 100 µM | SF-295 > 100 µM | LOX IMVI > 100 µM

O=C1/C(=C/c2ccccc2S)N=C(c2ccccc2)N1c1nc2c(Cl)cc(Cl)cc2s1
inactive: OVCAR-8 22.2 µM | CAKI-1 32.6 µM | A498 18.3 µM | OVCAR-4 28.4 µM | KM12 24.3 µM | SK-OV-3 20.9 µM | UACC-62 20.4 µM | SNB-19 27.8 µM | HCC 2998 26.4 µM | NCI/ADR-RES 26.8 µM | A549 21.9 µM | SK-MEL-5 17.7 µM | MOLT-4 12.6 µM | SK-MEL-28 35.4 µM | UACC-257 28.9 µM | SF-295 24.7 µM | LOX IMVI 20.4 µM

O=S(=O)(O)c1cc(O)c2c(O)c(/N=N/c3cccc4ccccc34)c(S(=O)(=O)O)cc2c1
inactive: OVCAR-8 > 100 µM | CAKI-1 > 100 µM | A498 > 100 µM | OVCAR-4 > 100 µM | KM12 > 100 µM | SK-OV-3 > 100 µM | UACC-62 > 100 µM | SNB-19 > 100 µM | Malme-3M > 100 µM | NCI/ADR-RES > 100 µM | A549 > 100 µM | SK-MEL-5 > 100 µM | MOLT-4 > 100 µM | SK-MEL-28 > 100 µM | UACC-257 > 100 µM | NCI-H522 > 100 µM | SF-295 > 100 µM | LOX IMVI > 100 µM

O=C(NNS(=O)(=O)c1ccc(Br)cc1)c1ccc(Cl)cc1NC(=O)C12CC3CC(CC(C3)C1)C2
inactive: OVCAR-8 13.6 µM | CAKI-1 17 µM | A498 15.2 µM | OVCAR-4 10.6 µM | KM12 16.4 µM | SK-OV-3 16.4 µM | UACC-62 12.4 µM | SNB-19 15.4 µM | Malme-3M 14.8 µM | NCI/ADR-RES 14.3 µM | A549 8.15 µM | SK-MEL-5 10.9 µM | MOLT-4 6.62 µM | UACC-257 13.5 µM | NCI-H522 12.4 µM | SF-295 13.9 µM | LOX IMVI 14.1 µM

CCOC(=O)C1CSCCSC1
inactive: OVCAR-8 > 100 µM | A498 44.3 µM | KM12 > 100 µM | SK-OV-3 > 100 µM | SNB-19 > 100 µM | HCC 2998 25.5 µM | NCI/ADR-RES > 100 µM | A549 > 100 µM | SK-MEL-5 43.2 µM | MOLT-4 > 100 µM | SK-MEL-28 > 100 µM | UACC-257 > 100 µM | NCI-H522 > 100 µM | SF-295 > 100 µM | LOX IMVI > 100 µM

Cc1cc(C)c2c(c1)C(=O)C1(C2)Cc2c(ccc(C)c2C)C1=O (configuration not stated)
inactive: OVCAR-8 > 100 µM | CAKI-1 > 100 µM | A498 > 100 µM | OVCAR-4 > 100 µM | KM12 > 100 µM | UACC-62 > 100 µM | SNB-19 > 100 µM | HCC 2998 > 100 µM | Malme-3M 22.3 µM | NCI/ADR-RES > 100 µM | A549 > 100 µM | SK-MEL-5 > 100 µM | MOLT-4 > 100 µM | SK-MEL-28 > 100 µM | UACC-257 > 100 µM | NCI-H522 43.8 µM | SF-295 > 100 µM | LOX IMVI > 100 µM
